Assay results from US5374655A, “Methods for the synthesis of monofucosylated oligosaccharides terminating in di-N-acetyllactosaminyl structures” (Alberta Research Council, priority 1992, dated 1994).

What was measured:
[1] = system: α(13/4)fucosyltransferase; assay: Fucosyltransferase assay: relative rates of fucose transfer onto the 3-hydroxy of GlcNAc in βGal(1-4)βGlcNAc-OR; type: biochemical, human; conditions: fucosylation of disaccharide glycosides βGal(1-4)βGlcNAc-OR with different substituents at the 6-position of galactose
Protocol: The βGlcNAc α(13/4)fucosyltranferase was purified from human milk, as reported.^4 The enzymatic reactions were carried out at 37° C. in a plastic tube using a sodium cacodylate buffer (100 mM, pH 6.5), MnCl2 (10 mM), ATP (1.6 mM), NaN3 (1.6 mM). The reaction products were isolated and purified as indicated above.
Experiments were conducted to determine the relative rates of transfer of fucosylation onto the 3-hydroxy of the GlcNAc in disaccharide glycosides βGal(1-4)βGlcNAc-OR having different substituents at the 6-position of the galactose. Fucosyltransferase assays were conducted with α(13/4)fucosyltransferase in a manner similar to that described in the art^4 and gave the following results: […]

[2] = system: Balb/c mice; assay: Mouse footpad swelling assay, DTH inflammatory response to L111 S-Layer protein; type: in vivo; parameters: INCREASE IN FOOTPAD SWELLING: unit not given here
Protocol: (§1) DTH inflammatory responses were measured using the mouse footpad swelling assay as described by Smith and Ziola^31. […] Seven days later, each group of mice was footpad-challenged with 10 μg of L-111 S-Layer protein. The resulting inflammatory footpad swelling was measured with a Mitutoyo Engineering micrometer 24 hours after challenge.
To assess the effect of hexasaccharide glycoside 5a on the inflammatory DTH response, groups of mice received 100 μg of this compound, injected into the tail vein, 5 hours after challenge. Control groups received 100 μL of phosphate-buffered saline (PBS).

[3] = system: Balb/c mice; assay: Persistence of suppression of the DTH inflammatory response, rechallenge 11 weeks after primary immunization; type: in vivo, mouse; conditions: rechallenge with L111 S-Layer protein 11 weeks after primary immunization
Protocol: as §1
i. The identical groups of mice treated with hexasaccharide glycoside 5a in Example 7 were rechallenged with L111 S-Layer protein 11 weeks after primary immunization.

[4] = system: ELAM-1; assay: ELAM-1 dependent cell adhesion to activated vascular endothelium (U937 or HL60 binding to TNFα-stimulated HUVECs); type: cell-based, human; conditions: HUVECs stimulated with TNFα (10 ng/ml); U937 or HL60 cells
Protocol: This example examines whether hexasaccharide 5a could inhibit ELAM-1 dependent cell adhesion to activated vascular endothelium. Specifically, an vitro cell binding assay was preformed as described by Lowe et al^33. Briefly, human umbilical vein endothelial cells (HUVECs purchased from Cell Systems, Seattle, Wash., USA) were stimulated with TNFα (10 ng/ml) to express ELAM-1.

COC(=O)CCCCCCCCO[C@@H]1O[C@H](CO)[C@@H](O[C@@H]2O[C@H](CO)[C@H](O)[C@H](O)[C@H]2O)[C@H](O)[C@H]1NC(C)=O [--OH]
Relative Rate of Transfer [1]: 100

COC(=O)CCCCCCCCO[C@@H]1O[C@H](CO)[C@@H](O[C@@H]2O[C@H](CO)[C@H](O)[C@H](O[C@@H]3O[C@H](CO)[C@@H](O[C@@H]4O[C@H](CO)[C@H](O)[C@H](O[C@]5(C(=O)O)C[C@H](O)[C@@H](NC(C)=O)[C@H]([C@H](O)[C@H](O)CO)O5)[C@H]4O)[C@H](O)[C@H]3NC(C)=O)[C@H]2O)[C@H](O[C@@H]2O[C@@H](C)[C@@H](O)[C@@H](O)[C@@H]2O)[C@H]1NC(C)=O [hexasaccharide glycoside 5a, 8-Methoxycarbonyloctyl (5-Acetamido-3,5-dideoxy-α-D-glycero-D-galacto-2-nonulopyranosylonicacid)-(2-3)--O--β-D-galactopyranosyl-(1-4)--O-- 2-acetamido-2-deoxy-β-D-glucopyranosyl-(1-3)--O--β-D-galactopyranosyl-(1-4)--O--[α-L-fucopyranosyl-(1-3)--O--]2-acetamido-2-deoxy-β-D-glucopyranoside]
INCREASE IN FOOTPAD SWELLING ([2]; 100 μg injected into the tail vein 5 hours after challenge, swelling measured 24 hours after challenge): 1.5
footpad swelling as compared to the control mice ([2]; 100 μg into the tail vein 5 hours after challenge, 24 hours after challenge): less than 50%
footpad swelling relative to that exhibited in mice treated with PBS [3]: about 60%
reduction in footpad swelling ([3]; versus PBS control): about 40%
inhibition of ELAM-1 dependent binding to the HUVECs [4]: inhibits ELAM-1 dependent binding to the HUVECs

COC(=O)CCOCCO[C@@H]1O[C@H](CO)[C@@H](O[C@@H]2O[C@H](C)[C@H](O)[C@H](O)[C@H]2O)[C@H](O)[C@H]1NC(C)=O [H]
Relative Rate of Transfer [1]: 9
